Assay results from US20230398130A1, “METHODS AND COMPOSITIONS FOR DIFFERENTIATING STEM CELLS” (Massachusetts Institute of Technology, priority 2020, published 2023).

Columns and labels:
ISC-enriched organoids [1] = test: Primary screen, 384-well 2.5-D organoid differentiation (ENR+CD, 6 days): basal lysozyme secretion (LYZ.NS); format: cell-based, murine; settings: for Dose.FC.LYZ.NS: FC vs plate median; for SSMD.LYZ.NS: strictly standardized mean difference
Text: (§1) High-throughput screening.

ISC-enriched organoids [2] = test: Primary screen, 384-well 2.5-D organoid differentiation (ENR+CD, 6 days): carbachol-induced lysozyme secretion (LYZ.S); format: cell-based, murine; settings: for Dose.FC.LYZ.S: FC vs plate median; for Z.LYZ.S: standard z score; for SSMD.LYZ.S: strictly standardized mean difference
Text: as §1

ISC-enriched organoids [3] = test: Primary screen, 384-well 2.5-D organoid differentiation (ENR+CD, 6 days, Target Selective Inhibitor Library, vs whole-plate median): ATP (CellTiter-Glo 3D, CTG); settings: for Dose.FC.CTG: FC vs plate median; for SSMD.CTG: strictly standardized mean difference
[4] = Dose 0.08 uM, standard z score of FC
[5] = Dose 0.40 uM, standard z score of FC
[6] = Dose 2.00 uM, standard z score of FC
[7] = Dose 10.00 uM, standard z score of FC
[8] = Dose 0.08 uM, primary screen, standard z score
[9] = Dose 0.40 uM, primary screen, standard z score
[10] = Dose 2.00 uM, primary screen, standard z score
[11] = Dose 10.00 uM, primary screen, standard z score
[12] = primary screen, 1st of the 4 dose lines of the treatment (dose not given)
[13] = primary screen, 2nd of the 4 dose lines of the treatment (dose not given)
[14] = primary screen, 3rd of the 4 dose lines of the treatment (dose not given)
[15] = primary screen, 4th of the 4 dose lines of the treatment (dose not given)

## CCC(CC)CC1(C(=O)Nc2ccccc2SC(=O)C(C)C)CCCCC1 [Dalcetrapib (JTT-705, RO4607381)]
ISC-enriched organoids [1]; Dose 0.08 uM, ENR+CD, 6 days
  Dose.FC.LYZ.NS: 0.055 log 2 fold change
ISC-enriched organoids [1]; [4]
  Z.LYZ.NS: 0.475
ISC-enriched organoids [1]; Dose 0.40 uM, ENR+CD, 6 days
  Dose.FC.LYZ.NS: −0.037 log 2 fold change
ISC-enriched organoids [1]; [5]
  Z.LYZ.NS: −0.324
ISC-enriched organoids [1]; Dose 2.00 uM, ENR+CD, 6 days
  Dose.FC.LYZ.NS: −0.034 log 2 fold change
ISC-enriched organoids [1]; [6]
  Z.LYZ.NS: −0.296
ISC-enriched organoids [1]; Dose 10.00 uM, ENR+CD, 6 days
  Dose.FC.LYZ.NS: −0.074 log 2 fold change
ISC-enriched organoids [1]; [7]
  Z.LYZ.NS: −0.643
ISC-enriched organoids [2]; Dose 0.08 uM, ENR+CD, 6 days
  Dose.FC.LYZ.S: 0.049 log 2 fold change
ISC-enriched organoids [2]; Dose 0.40 uM, ENR+CD, 6 days
  Dose.FC.LYZ.S: 0.104 log 2 fold change
ISC-enriched organoids [2]; Dose 2.00 uM, ENR+CD, 6 days
  Dose.FC.LYZ.S: 0.098 log 2 fold change
ISC-enriched organoids [2]; Dose 10.00 uM, ENR+CD, 6 days
  Dose.FC.LYZ.S: −0.113 log 2 fold change
ISC-enriched organoids [3]; Dose 0.08 uM, ENR+CD, 6 days
  Dose.FC.CTG: 0.112 log 2 fold change
ISC-enriched organoids [3]; [4]
  Z.CTG: 0.268
ISC-enriched organoids [3]; Dose 0.40 uM, ENR+CD, 6 days
  Dose.FC.CTG: −0.006 log 2 fold change
ISC-enriched organoids [3]; [5]
  Z.CTG: −0.014
ISC-enriched organoids [3]; Dose 2.00 uM, ENR+CD, 6 days
  Dose.FC.CTG: 0.079 log 2 fold change
ISC-enriched organoids [3]; [6]
  Z.CTG: 0.188
ISC-enriched organoids [3]; Dose 10.00 uM, ENR+CD, 6 days
  Dose.FC.CTG: 0.136 log 2 fold change
ISC-enriched organoids [3]; [7]
  Z.CTG: 0.324

## Cc1[nH]c2ccccc2c1CCNCc1ccc(/C=C/C(=O)NO)cc1 [Panobinostat (LBH589)]
ISC-enriched organoids [1]; Dose 0.08 uM, primary screen
  Dose.FC.LYZ.NS: 0.002 log 2 fold change
ISC-enriched organoids [1]; [4]
  Z.LYZ.NS: 0.014
ISC-enriched organoids [1]; Dose 0.40 uM, primary screen
  Dose.FC.LYZ.NS: −0.027 log 2 fold change
ISC-enriched organoids [1]; [5]
  Z.LYZ.NS: −0.232
ISC-enriched organoids [1]; Dose 2.00 uM, primary screen
  Dose.FC.LYZ.NS: −0.153 log 2 fold change
ISC-enriched organoids [1]; [6]
  Z.LYZ.NS: −1.329
ISC-enriched organoids [1]; Dose 10.00 uM, primary screen
  Dose.FC.LYZ.NS: −0.217 log 2 fold change
ISC-enriched organoids [1]; [7]
  Z.LYZ.NS: −1.891
ISC-enriched organoids [2]; Dose 0.08 uM, primary screen
  Dose.FC.LYZ.S: −0.034 log 2 fold change
ISC-enriched organoids [2]; Dose 0.40 uM, primary screen
  Dose.FC.LYZ.S: −0.042 log 2 fold change
ISC-enriched organoids [2]; Dose 2.00 uM, primary screen
  Dose.FC.LYZ.S: −0.285 log 2 fold change
ISC-enriched organoids [2]; Dose 10.00 uM, primary screen
  Dose.FC.LYZ.S: −0.320 log 2 fold change
ISC-enriched organoids [3]; Dose 0.08 uM, primary screen
  Dose.FC.CTG: 0.295 log 2 fold change
ISC-enriched organoids [3]; [4]
  Z.CTG: 0.706
ISC-enriched organoids [3]; Dose 0.40 uM, primary screen
  Dose.FC.CTG: 0.212 log 2 fold change
ISC-enriched organoids [3]; [5]
  Z.CTG: 0.506
ISC-enriched organoids [3]; Dose 2.00 uM, primary screen
  Dose.FC.CTG: −0.537 log 2 fold change
ISC-enriched organoids [3]; [6]
  Z.CTG: −1.283
ISC-enriched organoids [3]; Dose 10.00 uM, primary screen
  Dose.FC.CTG: −1.003 log 2 fold change
ISC-enriched organoids [3]; [7]
  Z.CTG: −2.395

## C[C@H](NC(=O)[C@@H](O)c1cc(F)cc(F)c1)C(=O)N[C@@H]1C(=O)N(C)c2ccccc2-c2ccccc21 [LY411575]
ISC-enriched organoids [1]; Dose 0.08 uM, primary screen
  Dose.FC.LYZ.NS: 0.040 log 2 fold change
ISC-enriched organoids [1]; [8]
  Z.LYZ.NS: 0.347
ISC-enriched organoids [1]; Dose 0.40 uM, primary screen
  Dose.FC.LYZ.NS: −0.050 log 2 fold change
ISC-enriched organoids [1]; [9]
  Z.LYZ.NS: −0.434
ISC-enriched organoids [1]; Dose 2.00 uM, primary screen
  Dose.FC.LYZ.NS: −0.069 log 2 fold change
ISC-enriched organoids [1]; [10]
  Z.LYZ.NS: −0.598
ISC-enriched organoids [1]; Dose 10.00 uM, primary screen
  Dose.FC.LYZ.NS: −0.109 log 2 fold change
ISC-enriched organoids [1]; [11]
  Z.LYZ.NS: −0.949
ISC-enriched organoids [1]; [12]
  SSMD.LYZ.NS: 0.217
ISC-enriched organoids [1]; [13]
  SSMD.LYZ.NS: −0.432
ISC-enriched organoids [1]; [14]
  SSMD.LYZ.NS: −0.593
ISC-enriched organoids [1]; [15]
  SSMD.LYZ.NS: −0.931
ISC-enriched organoids [2]; Dose 0.08 uM, primary screen
  Dose.FC.LYZ.S: 0.024 log 2 fold change
ISC-enriched organoids [2]; Dose 0.40 uM, primary screen
  Dose.FC.LYZ.S: 0.041 log 2 fold change
ISC-enriched organoids [2]; Dose 2.00 uM, primary screen
  Dose.FC.LYZ.S: −0.091 log 2 fold change
ISC-enriched organoids [2]; Dose 10.00 uM, primary screen
  Dose.FC.LYZ.S: −0.157 log 2 fold change
ISC-enriched organoids [2]; [12]
  Z.LYZ.S: 0.155
  SSMD.LYZ.S: 0.094
ISC-enriched organoids [2]; [13]
  Z.LYZ.S: 0.266
  SSMD.LYZ.S: 0.171
ISC-enriched organoids [2]; [14]
  Z.LYZ.S: −0.590
  SSMD.LYZ.S: −0.596
ISC-enriched organoids [2]; [15]
  Z.LYZ.S: −1.015
  SSMD.LYZ.S: −0.917
ISC-enriched organoids [3]; Dose 0.08 uM, primary screen
  Dose.FC.CTG: 0.035 log 2 fold change
ISC-enriched organoids [3]; [8]
  Z.CTG: 0.083
ISC-enriched organoids [3]; Dose 0.40 uM, primary screen
  Dose.FC.CTG: −0.172 log 2 fold change
ISC-enriched organoids [3]; [9]
  Z.CTG: −0.411
ISC-enriched organoids [3]; Dose 2.00 uM, primary screen
  Dose.FC.CTG: −0.172 log 2 fold change
ISC-enriched organoids [3]; [10]
  Z.CTG: −0.412
ISC-enriched organoids [3]; Dose 10.00 uM, primary screen
  Dose.FC.CTG: −0.259 log 2 fold change
ISC-enriched organoids [3]; [11]
  Z.CTG: −0.618
ISC-enriched organoids [3]; [12]
  SSMD.CTG: 0.086
ISC-enriched organoids [3]; [13]
  SSMD.CTG: −0.312
ISC-enriched organoids [3]; [14]
  SSMD.CTG: −0.389
ISC-enriched organoids [3]; [15]
  SSMD.CTG: −0.550

## CC(C)CCNC(=O)[C@H](CC(C)C)NC(=O)[C@H]1O[C@@H]1C(=O)O [Loxistatin Acid (E-64C)]
ISC-enriched organoids [1]; Dose 0.08 uM, primary screen
  Dose.FC.LYZ.NS: 0.147 log 2 fold change
ISC-enriched organoids [1]; [8]
  Z.LYZ.NS: 1.283
ISC-enriched organoids [1]; Dose 0.40 uM, primary screen
  Dose.FC.LYZ.NS: 0.061 log 2 fold change
ISC-enriched organoids [1]; [9]
  Z.LYZ.NS: 0.534
ISC-enriched organoids [1]; Dose 2.00 uM, primary screen
  Dose.FC.LYZ.NS: 0.055 log 2 fold change
ISC-enriched organoids [1]; [10]
  Z.LYZ.NS: 0.482
ISC-enriched organoids [1]; Dose 10.00 uM, primary screen
  Dose.FC.LYZ.NS: 0.004 log 2 fold change
ISC-enriched organoids [1]; [11]
  Z.LYZ.NS: 0.031
ISC-enriched organoids [1]; [12]
  SSMD.LYZ.NS: 0.757
ISC-enriched organoids [1]; [13]
  SSMD.LYZ.NS: 0.330
ISC-enriched organoids [1]; [14]
  SSMD.LYZ.NS: 0.411
ISC-enriched organoids [1]; [15]
  SSMD.LYZ.NS: 0.027
ISC-enriched organoids [2]; Dose 0.08 uM, primary screen
  Dose.FC.LYZ.S: 0.125 log 2 fold change
ISC-enriched organoids [2]; Dose 0.40 uM, primary screen
  Dose.FC.LYZ.S: 0.105 log 2 fold change
ISC-enriched organoids [2]; Dose 2.00 uM, primary screen
  Dose.FC.LYZ.S: 0.037 log 2 fold change
ISC-enriched organoids [2]; Dose 10.00 uM, primary screen
  Dose.FC.LYZ.S: 0.021 log 2 fold change
ISC-enriched organoids [2]; [12]
  Z.LYZ.S: 0.808
  SSMD.LYZ.S: 0.833
ISC-enriched organoids [2]; [13]
  Z.LYZ.S: 0.677
  SSMD.LYZ.S: 0.449
ISC-enriched organoids [2]; [14]
  Z.LYZ.S: 0.238
  SSMD.LYZ.S: 0.159
ISC-enriched organoids [2]; [15]
  Z.LYZ.S: 0.138
  SSMD.LYZ.S: 0.141
ISC-enriched organoids [3]; Dose 0.08 uM, primary screen
  Dose.FC.CTG: 0.086 log 2 fold change
ISC-enriched organoids [3]; [8]
  Z.CTG: 0.206
ISC-enriched organoids [3]; Dose 0.40 uM, primary screen
  Dose.FC.CTG: 0.156 log 2 fold change
ISC-enriched organoids [3]; [9]
  Z.CTG: 0.373
ISC-enriched organoids [3]; Dose 2.00 uM, primary screen
  Dose.FC.CTG: 0.080 log 2 fold change
ISC-enriched organoids [3]; [10]
  Z.CTG: 0.191
ISC-enriched organoids [3]; Dose 10.00 uM, primary screen
  Dose.FC.CTG: 0.094 log 2 fold change
ISC-enriched organoids [3]; [11]
  Z.CTG: 0.224
ISC-enriched organoids [3]; [12]
  SSMD.CTG: 0.218
ISC-enriched organoids [3]; [13]
  SSMD.CTG: 0.402
ISC-enriched organoids [3]; [14]
  SSMD.CTG: 0.176
ISC-enriched organoids [3]; [15]
  SSMD.CTG: 0.270
